Measured values: patent US8827946B2 (Shin Nippon Biomedical Laboratories, Ltd., priority 2009, dated 2014)
Where two headings read alike, the source gives them in different places.

Experiment: Phase 1 clinical study, pharmacokinetics of granisetron after intravenous and intranasal administration
Format: in vivo, human
Method: This was an open-label safety and PK study conducted at a single site in which healthy volunteers, at weekly intervals, were given the reference intravenous dose, followed by three single escalating nasal doses of TRG at weekly intervals.
Subjects received one intravenous dose of Kytril® (10 μg/kg) followed by three escalating single doses of TRG. There was a 7 day washout period between each dose.
The following PK parameters were tested: AUC0-last (ng·h/mL), AUCinf (ng·h/mL), Tmax (hours), Cmax (ng/mL), T1/2 (hours), clearance, and volume of distribution. No efficacy variables were assessed in this safety and PK study.
The PK parameters T1/2, Tmax, Cmax, AUC0-last, and AUCinf were calculated by using noncompartmental analysis. Values for Tmax and Cmax were reported as the observed values. Terminal elimination rate constants (λz) were determined by log-linear regression of the terminal portion of the concentration-time curves (FIG. 8). Values for T1/2 were calculated as (ln 2)/λz, and AUC0-last was determined by the linear trapezoidal method. AUCinf was calculated as the sum of AUC0-last and Clast/λz where Clast is the last measurable concentration. The absolute bioavailability (F) was calculated for each subject by the dose-corrected AUCinf intranasal divided by AUCinf intravenous. Apparent clearance and volume of distribution were also calculated. To determine the relationship between pharmacokinetic parameters (Cmax, AUClast, and AUC0-∞) and dosage, a multiple regression analysis was performed with log-transformed values. For other pharmacokinetic parameters, analysis of variance (ANOVA) using the mixed effect model was performed to compare between groups.

[1] = human, plasma, 10 ug/kg, intravenous 10 μg/kg (Kytril), healthy male volunteers, mean, N=8
[2] = human, plasma, inhaled or intranasal, intranasal 0.5 mg (TRG capsule, single nostril), healthy male volunteers, mean
[3] = human, plasma, inhaled or intranasal, intranasal 1.0 mg (TRG capsule, single nostril), healthy male volunteers, mean
[4] = human, plasma, inhaled or intranasal, intranasal 2.0 mg (TRG capsule, single nostril), healthy male volunteers, mean
[5] = intranasal 0.5 mg (TRG capsule, single nostril), healthy male volunteers, mean
[6] = intranasal 1.0 mg (TRG capsule, single nostril), healthy male volunteers, mean
[7] = intranasal 2.0 mg (TRG capsule, single nostril), healthy male volunteers, mean

## CN1C2CCCC1CC(NC(=O)c1nn(C)c3ccccc13)C2 (stereo not drawn) [Granisetron, endo-N-(9-methyl-9-azabicyclo[3.3.1]non-3-yl)-1-methyl-1H-indazole-3-carboxamide]
[1]
  AUC(0-inf): 103 ng·h/mL
  AUC(0-t): 92.4 ng·h/mL
  Cmax: 16.6 ng/mL
  clearance: 158 mL/min
human, plasma, 10 ug/kg, intravenous 10 μg/kg (Kytril), healthy male volunteers, mean, N=8, read-out: T1/2 (converted)
  half-life: 8.52 h
human, plasma, 10 ug/kg, intravenous 10 μg/kg (Kytril), healthy male volunteers, mean, N=8, read-out: Vss
  Vd: 108 L
[2]
  AUC(0-inf): 52.7 ng·h/mL
  AUC(0-t): 46.9 ng·h/mL
  Cmax: 4.95 ng/mL
human, plasma, inhaled or intranasal, intranasal 0.5 mg (TRG capsule, single nostril), healthy male volunteers, mean, read-out: T1/2 (converted)
  half-life: 8.9 h
[3]
  AUC(0-inf): 119 ng·h/mL
  AUC(0-t): 105 ng·h/mL
  Cmax: 13.3 ng/mL
human, plasma, inhaled or intranasal, intranasal 1.0 mg (TRG capsule, single nostril), healthy male volunteers, mean, read-out: T1/2 (converted)
  half-life: 9.52 h
[4]
  AUC(0-inf): 236 ng·h/mL
  AUC(0-t): 210 ng·h/mL
  Cmax: 26.6 ng/mL
human, plasma, inhaled or intranasal, intranasal 2.0 mg (TRG capsule, single nostril), healthy male volunteers, mean, read-out: T1/2 (converted)
  half-life: 9.29 h
[5]
  CL/F: 10.6 L/h
  Vz: 131.4 L
[6]
  CL/F: 9.1 L/h
  Vz: 122.6 L
[7]
  CL/F: 9.2 L/h
  Vz: 122.0 L
male, human, plasma, inhaled or intranasal, 0.5 mg, intranasal 0.5 mg (TRG capsule, single nostril), healthy male volunteers, mean, read-out: Tmax
  Tmax: 1.34 h
male, human, plasma, inhaled or intranasal, 1 mg, intranasal 1.0 mg (TRG capsule, single nostril), healthy male volunteers, mean, read-out: Tmax
  Tmax: 0.34 h
male, human, plasma, inhaled or intranasal, 2 mg, intranasal 2.0 mg (TRG capsule, single nostril), healthy male volunteers, mean, read-out: Tmax
  Tmax: 0.63 h
male, human, plasma, inhaled or intranasal, 2 mg, intranasal, 0.5, 1.0 and 2.0 mg doses together, read-out: overall mean Tmax
  Tmax: 0.75 h
male, human, plasma, inhaled or intranasal, after intranasal administration, all dose levels, read-out: overall mean half-life (converted)
  half-life: 9.23 h
male, human, plasma, iv, 10 ug/kg, intravenous 10 μg/kg (Kytril), healthy male volunteers, mean, N=8, read-out: Tmax
  Tmax: 0.18 h
male, human, plasma, iv, 10 μg/kg, intravenous rapid infusion 10 μg/kg, all subjects except one, read-out: Tmax
  Tmax: 0.0833 to 0.167 h
